Measurements taken from patent publication US12553033B2, “Medium, methods, cells and secreted factors for stem cell culture and therapy” (SanBio, Inc., priority 2016, dated 2026).

Experiments:
[1] = tested on: Human bone marrow derived mesenchymal stem cells; experiment: TNFSF10 (TRAIL) mRNA induction (quantitative real-time PCR) in mesenchymal stem cells, type 1 priming; type: cell-based; conditions: normalized to 18S rRNA
Description: Referring to FIG. 4A and FIG. 4B, Type 1 mesenchymal stem cell priming by TLR4 is further enhanced with leukotriene B4 (LTB4), serotonin (5-HT), melatonin (MEL). Human bone marrow derived mesenchymal stem cells were induced into type 1 mesenchymal stem cells using lipopolysaccharide (LPS) and 0.5 ng/ml of human recombinant erythropoietin. Total RNA was isolated, purified, and reverse transcribed to cDNA. Quantitative real-time PCR was carried out using SYBR Green Master Mix. Data were analyzed using the quantitative comparative CT method, normalizing target gene expression to the 18S rRNA housekeeping gene, and shown as fold increase over the untreated control. […] Error bars represent +/− the standard error of the mean (SEM). […] TLR4 (approx. 425,854-fold FIG. 4A; approx. 7,567-fold FIG. 4B), LTB4 (approx. 49-fold FIG. 4A; approx. 49-fold FIG. 4B), 5-HT (approx. 333-fold FIG. 4B), or MEL (approx. 489-fold FIG. 4B).

[2] = tested on: Human bone marrow derived mesenchymal stem cells; experiment: CXCL9 mRNA induction (quantitative real-time PCR) in mesenchymal stem cells, type 2 priming; type: cell-based; conditions: normalized to 18S rRNA
Description: Referring to FIG. 3A and FIG. 3B, Type 2 mesenchymal stem cell priming by TLR3 is further enhanced with Acetylcholine (ACH), Glutamate (GLU), and Lipoxin A4 (LAX4). Human bone marrow derived mesenchymal stem cells were induced into type 2 mesenchymal cells using poly(I:C) and 0.5 ng/ml of human recombinant erythropoictin. Total RNA was isolated, purified, and reverse transcribed to cDNA. Quantitative real-time PCR was carried out using SYBR Green Master Mix. Data were analyzed using the quantitative comparative CT method, normalizing target gene expression to the 18S rRNA housekeeping gene, and shown as fold increase over the untreated control. […] Error bars represent +/− the standard error of the mean (SEM).

Compound	TNFSF10 (TRAIL) gene expression, fold increase over the untreated control ([1]; FIG. 4B experiment)	CXCL9 gene expression, fold increase over the untreated control ([2]; FIG. 3A experiment)	CXCL9 gene expression, fold increase over the untreated control ([2]; FIG. 3B experiment)	TNFSF10 (TRAIL) gene expression, fold increase over the untreated control ([1]; FIG. 4A experiment)
NCCc1c[nH]c2ccc(O)cc12 [5-HT, serotonin]	approx. 333 fold			
CC(=O)OCC[N+](C)(C)C [ACH, Acetylcholine]		approx. 3.7 fold	approx. 20 fold	
N[C@@H](CCC(=O)O)C(=O)O [GLU, Glutamate]		approx. 1.4 fold	approx. 16 fold	
CCCCC[C@H](O)/C=C/C=C\C=C\C=C\[C@@H](O)[C@@H](O)CCCC(=O)O [LAX4, Lipoxin A4]		approx. −2 fold	approx. 13 fold	
CCCCC/C=C\C[C@@H](O)/C=C/C=C/C=C\[C@@H](O)CCCC(=O)O [LTB4, leukotriene B4]	approx. 49 fold			approx. 49 fold
COc1ccc2[nH]cc(CCNC(C)=O)c2c1 [MEL, melatonin]	approx. 489 fold			
poly(I:C) [TLR3]		approx. 8.8 fold	approx. 22 fold	
